Experimental data reported in patent US8551524B2, “Anti-diabetic combinations” (priority 2007, dated 2013).

Details: human, in vivo
Source text: a. […] Laboratory results were then reviewed for these particular patients to determine which patients actually had clinically important changes in a given laboratory parameter.

For `CN(C)C(=N)N=C(N)N` [metformin], the “patients with adverse events” value was 10%.

In the case of `N[C@@H](CC(=O)N1CCn2c(nnc2C(F)(F)F)C1)Cc1cc(F)c(F)cc1F` [sitagliptin], the “clinically important decreases in any hematological parameter directly attributable to the drug” value is reported as “No patient experienced clinically important decreases”, the “patients with adverse events” value is reported as 8% and the “responsibility for clinically meaningful elevations in ALT and AST” value is reported as “not responsible for the variations”.
